According to PMC5770468, “Cardiac glycoside/aglycones inhibit HIV-1 gene expression by a mechanism requiring MEK1/2-ERK1/2 signaling” (Scientific Reports, 2018):
Where two headings read alike, the source gives them in different places.

Key:
[1] = test system: HIV-1 (Gag) gene expression; assay: HIV-1 (Gag) gene expression in HeLa rtTA-HIV-ΔMls cells, p24CA ELISA dose response; type: cell-based, HIV-1 (LAI)
Description: Drug/compounds were tested for effects on HIV-1 gene expression using inducible Tet-ON HIV-1 cell lines [HeLa rtTA-HIV-ΔMls or rtTA-HIV(Gag-GFP)] containing a HIV-1 (LAI) provirus activatable by Dox or tetracycline transactivator (tTA)[69]. The rtTA-HIV-ΔMls provirus was modified and used as previously reported[9]–[11],[70]. The rtTA-HIV(Gag-GFP) provirus was generated by deletion of the PR and RT coding regions within pol and insertion of GFP to the 3′ of gag, creating GFP fused to the C-terminal of Gag. After 4 h of drug/compound treatment, HIV-1 gene expression was activated with Dox (2 μg/mL) or tTA (described below). Equal concentrations of DMSO were present in each experiment. After ~20 h, cells and media were harvested to monitor the effects of drug/compound treatments as described below. HIV-1 gene expression was quantified via p24^CA ELISA or monitoring Gag-GFP fluorescence in cells as described below. In parallel, cell viability of treatments were assessed by XTT assay (Sigma-Aldrich, #TOX2).
Drug/compounds were purchased from Sigma (Digoxin, #D6003; Digitoxin, #D5878; Digoxigenin, #D9026; Digitoxigenin, #D9404; Ouabain, #O3125; Bufalin, #S961175; Cinobufagin, #C1272; and Anisomycin, #A9789) and derivatives of convallatoxin were synthesized from C. Lingwood’s lab of the Hospital for Sick Children (convallatoxin, peruvoside, RIDK-34, -36, -20, -21, -27, and -28). […] Recombinant human EGF was from Invitrogen (#PHG0314). Chemical structures were drawn in ChemSketch (ACD/Labs).
To monitor HIV-1 gene expression or replication, Gag release into cell culture supernatants were assayed by ELISA using a p24^CA antigen capture assay kit (AIDS & Cancer Virus Program, NCI-Frederick, Frederick, MD USA). Media harvested from HIV clinical isolates were diluted ~10 fold (or as necessary) prior to performing this assay. For analysis of HIV-1 and SR protein expression (and phosphorylation states with calf intestinal alkaline phosphatase treatments), cells were lysed and analyzed by western blot as previously outlined. Phosphatase inhibitors (e.g. 10 mM sodium fluoride, 2 mM sodium orthovanadate) were added to solutions requiring phospho protein analyses. An anti-chicken NKA antibody (α6F, #a6F–c, Developmental Studies Hybridoma Bank, The University of Iowa, contributed by Douglas M. Fambrough, The Johns Hopkins University) was used as specified to detect NKA α1- and β1-subunits across species. […] Activation of MAPKs was determined by western blot quantitation and calculation of phospho/total protein levels. […] Images were exported as TIF files for assembly, rotation, and equal brightness/contrast adjustments in ImageJ or Microsoft Powerpoint. Some lanes were cropped and rearranged from the same blot/gel as indicated. In representative gel/blot sets, samples were electrophoresed from the same experiment as controls, resolved simultaneously on identically cast gel(s), transferred to same PVDF (by either wet electrophoretic or by Bio-Rad Trans-Blot® Turbo Transfer System), and detected at same time. Marked locations of molecular weight (MW) standards are shown on the left as a reference. […] SUnSET analysis of total cellular protein synthesis. HeLa rtTA-HIV-ΔMls cells were cultured in the presence/absence of compound and pathway inhibitor (if any) and Dox induced for ~24 h as already described, then treated with puromycin (10 μg/mL, Sigma-Aldrich, #P8833) for 30 min to label nascent proteins prior to harvest. As control, 10 µM of cycloheximide (Sigma-Aldrich, #C4849) was added to some cells prior to puromycin treatment. Cells were subsequently washed, whole cell lysates prepared, and proteins quantified by western blot using an anti-puromycin antibody (EMD Millipore, #anti-12D10) as described above. Transfection of plasmid DNA into cells.

HIV-1 US RNAs = assay: FISH localization of HIV-1 US RNA in HeLa rtTA-HIV(Gag-GFP) cells; type: cell-based; conditions: ~IC90s of CSs
Excerpt: Figure 4 CSs suppress HIV-1 gene expression by altering viral RNA processing. […] (a,b) CSs induce oversplicing of HIV-1 RNAs (n ≥ 3, mean, s.e.m.). (a) Diagram of the primer positions (arrow heads) used for qRT-PCR. (b) Graph of the relative amount of US (black), SS (white), and MS (gray) HIV-1 RNAs in cells treated with various CSs. (c) Nuclear export of HIV-1 US RNAs in cells is altered by CSs (representative n ≥ 4). HIV-1 US RNAs were localized by FISH after treating HeLa rtTA-HIV(Gag-GFP) cells as described above but with ~IC90s of CSs. Nuclei were stained by DAPI and images captured at 630 × magnification. (d) CSs induce differential post-translational modification of SR proteins (representative n ≥ 3). SRp20, Tra2β, and tubulin were analyzed by immunoblot of HeLa rtTA-HIV-ΔMls cells treated as described above except cells of this representative blot were treated 3 d with ~IC50s of CSs. (g) Lanes were cropped and assembled from the same gel/blot per box (Supplementary Fig. S4d).
RNA was extracted from cells, reverse transcribed, and resulting cDNAs subject to qRT-PCR quantification of HIV-1 mRNAs as previously described except reactions used iTaq™ Universal SYBR® Green Supermix (Bio-Rad, #172-5120) run on a Bio-Rad CFX384 Touch™ Real-Time PCR Detection System and analyzed with CFX Manager™[9]. NKA α1, 2, and 3 subunits were detected by published primers, amplified by iTaq using the same cycling temperature and times previously described for HIV-1 US/MS cDNAs except α1, 2, and 3 annealing temperatures were 61 °C[9],[73]. All data was normalized to β-actin as internal loading control. Primers sequences for NKA α subunits were as follows: α1 forward (5′-[…] -3′), α1 reverse (5′- […] -3′), α2 forward (5′-[…]-3′), α2 reverse (5′-[…]-3′), α3 forward (5′-[…]-3′), and α3 reverse (5′-GGGCAGACTCAGACGCATC-3′). Monitoring the subcellular localization of HIV-1 genomic RNA. HeLa rtTA-HIV(Gag-GFP) cells were seeded on cover slips, treated with drug/compound, and processed for FISH to detect HIV-1 US RNAs using Stellaris™ probes (Biosearch Technologies) as previously detailed[10],[11].

HeLa rtTA-HIV-ΔMls cells = assay: In vitro therapeutic index (CC20/IC50) in HeLa rtTA-HIV-ΔMls cells; type: cell-based, human
Excerpt: Without median toxic dose (TD50) and half-maximal effective concentration (EC50) data available to calculate TIs (in vivo) from HIV patients treated with CSs, we determined the following TIs for each cell type treated with a CS (summarized in Supplementary Table S1): in vitro TIs from HeLa rtTA-HIV-ΔMls cells using CC20/IC50 (instead of CC50/IC50), in vitro TIs from 24ST1NLESG cells using CC50/IC50, and ex vivo TIs from HIV-infected PBMCs using CC50/IC50 (at day 14 of culture approximated from available cell viability trends for CC50s of Supplementary Fig. S13 and inferred near maximal IC50s).
Supplementary Table S1. Comparison of the in vitro (IVTI) and ex vivo therapeutic indices (EVTIs) of CSs and their impact on the expression of essential HIV-1 proteins.
Notes: data for CC20, CC50, and IC50s for each drug/compound were estimated from dose response curves in Figures 1-2, Supplementary Table S1, Supplementary Figures S2, S5, and S13, and Wong et al.
">" means the estimate has not been accurately determined but is greater than the highest concentration […]
"( )" indicates preliminary data that was not shown. aCC20 instead of CC50 was estimated from dose response curves and used for calculation of IVTIs. bCells were treated at ~IC90of a CS.
(1 picture or pasted object on this page, not shown here)

For `C[C@]12CC[C@H](O)C[C@H]1CC[C@@H]1[C@@H]2CC[C@]2(C)[C@@H](c3ccc(=O)oc3)CC[C@]12O` [Bufalin], the “IC50 lower for HIV-1 inhibition compared to digoxin” value [1] was 9 fold, the “better anti-HIV-1 activity than digoxin” value [1] was 9 fold and the IC50 ([1]; Human immunodeficiency virus 1, HeLa, read-out: IC50 (nM) HeLa rtTA-HIV-ΔMls) was 5 nM. It also gave an IC90 ([1]; Human immunodeficiency virus 1, HeLa, read-out: IC90, HIV-1 (Gag) gene expression) of 15 nM, an IC80 ([1]; Human immunodeficiency virus 1, HeLa, read-out: ~IC80 (approximate concentration used in experiments)) of ~11 nM and an IC90 ([1]; Human immunodeficiency virus 1, HeLa, read-out: ~IC90 (approximate concentration used in experiments)) of ~15 nM. The “HIV-1 US RNA subcellular localization” value (HIV-1 US RNAs) was “almost exclusively within the nucleus” and the “better in vitro TI than digoxin” value (HeLa rtTA-HIV-ΔMls cells) was 9 fold.
